Consider 4 molecules from ChEMBL document CHEMBL3044995, “Synthesis of allylic trifluoromethyl ketones and their activity as inhibitors of the sex pheromone of the leopard moth, Zeuzera pyrina L. (Lepidoptera: Cossidae)” (Pest Manag Sci, 2011).

Converted amounts (≈) assume the structure as drawn. The source made the active and inactive calls. The rule behind the calls is not given here.

Series [1] is described as follows: Toxicity in Swiss Mus musculus (mouse) measured after 6 days. Conditions: in vivo. The format is organism-based.
In series [2] the test system is Daphnia. Kind of series: Toxicity in Daphnia assessed as survial. The format is organism-based.
Series [3] has as its system Zeuzera pyrina. Kind of series: Inhibition of electroantennogram response of Zeuzera pyrina males to sex pheromone at 0.5 ug/antenna topical application by electrophysiology. The format is functional, organism-based.
Series [4] deals with Zeuzera pyrina. The series is described as follows: Inhibition of electroantennogram response of Zeuzera pyrina males to sex pheromone at 1 ug/antenna topical application by electrophysiology. The format is functional.
Series [5] concerns Zeuzera pyrina. Kind of series: Inhibition of electroantennogram response of Zeuzera pyrina males to sex pheromone at 0.1 ug/antenna topical application by electrophysiology. It counts as functional, organism-based.
For series [6], the system named is Zeuzera pyrina. Kind of series: Inhibition of electroantennogram response of Zeuzera pyrina males to sex pheromone at =>0.05 ug/antenna topical application by electrophysiology. It counts as functional, organism-based.
Series [7] concerns Zeuzera pyrina. Kind of series: Effect on response of Zeuzera pyrina males to the calling female assessed as flight towords source up to 10 ug by Wind tunnel assay. It counts as functional.
In series [8] the test system is Zeuzera pyrina. The series is described as follows: Effect on response of Zeuzera pyrina males to the calling female assessed as contact to female up to 10 ug by Wind tunnel assay. The format is functional.
Series [9] has as its system Zeuzera pyrina. The series is described as follows: Effect on response of Zeuzera pyrina males to the calling female assessed as male took off up to 10 ug by Wind tunnel assay. It counts as functional.
The subject of series [10] is Zeuzera pyrina. The series is described as follows: Effect on response of Zeuzera pyrina males to the calling female assessed as complete upwind fligts up to 10 ug by Wind tunnel assay. It counts as functional.

With `CCCCCCCCSCC(=O)C(F)(F)F`, the LD50 at 144 h in series [1] was 1000 mg/kg.
On to `CCCC/C=C\CCCCCCCCCCC(=O)C(F)(F)F`, for which, in [1], the LD50 at 144 h is 1000 mg/kg. For the same molecule, the EC50 in [2] was determined as 0.07 µg/mL (≈ 0.218 µM).
Consider `CCCC/C=C\CCCCCCCCC/C=C/CC(=O)C(F)(F)F`, for which the inhibition entry in series [3] and in series [6] was “Active” in each case. Also, in series [4], the “inhibition (INH)” value is above 80%. Besides, the result in series [5] was Active.
Take `CCCC/C=C\CCCCCCCC/C=C/CCC(=O)C(F)(F)F`: the Activity in [7] stood at 62%; in [8], 55%; in series [9], 95%; in [10] it was 55%. Besides, the “inhibition (INH)” value in [4] is given as above 80%. In series [5], the result was Active.
